Values quoted from earlier work, collected in patent US20040120994A1, “Transdermal therapeutic system containing testorone and method for its production thereof” (priority 2001, published 2004).

Experiments:
transport proteins = settings: in the blood

In the case of `C[C@]12CC[C@H]3[C@@H](CCC4=CC(=O)CC[C@@]43C)[C@@H]1CC[C@@H]2O` [testosterone], the plasma half-life is given as “around 80 min” and the “testosterone bound to transport proteins” value (transport proteins) is given as 98%.
